# Experimental data: ChEMBL document CHEMBL3885881, “DrugMatrix”
# Species on record: Rattus norvegicus
# Assay: DrugMatrix - Regimen: Daily Repeat
# Assay type: toxicity, organism-based, Sprague-Dawley
# Design: regimen Daily Repeat, gender Male, age 6-8 weeks
# Conditions: in vivo, po, 1200 mg/kg, route oral GAVAGE, dose level High, vehicle 100 % WATER; for ALANINE AMINOTRANSFERASE / ALBUMIN / ALKALINE PHOSPHATASE / ASPARTATE AMINOTRANSFERASE / BLOOD UREA NITROGEN / CARBON DIOXIDE / CHLORIDE / CHOLESTEROL / CREATINE PHOSPHOKINASE / CREATININE / GLUCOSE / LACTATE DEHYDROGENASE / LIPASE / PHOSPHORUS / POTASSIUM / SODIUM / TOTAL BILIRUBIN / TOTAL PROTEIN / URIC ACID: tissue Plasma
# [1] = 120 h, tissue Blood, time 5 day
structure (smiles),measurement,setting,value
COCCc1ccc(OCC(O)CNC(C)C)cc1 (configuration not stated) [METOPROLOL],ABSOLUTE SEGMENTED NEUTROPHIL,"72 h, tissue Blood, time 3 day",909.67 CELLS/uL
same,BASOPHIL,"72 h, tissue Blood, time 3 day",0%
same,EOSINOPHIL,"72 h, tissue Blood, time 3 day",2.33%
same,ERYTHROCYTE COUNT,"72 h, tissue Blood, time 3 day",5.22 x10E6/uL
same,HEMATOCRIT,"72 h, tissue Blood, time 3 day",33.73%
same,HEMOGLOBIN,"72 h, tissue Blood, time 3 day",12.8 G/DL
same,LEUKOCYTE COUNT,"72 h, tissue Blood, time 3 day",12.47 x10E3/uL
same,LYMPHOCYTE,"72 h, tissue Blood, time 3 day",90.33%
same,MEAN CORPUSCULAR HEMOGLOBIN,"72 h, tissue Blood, time 3 day",24.57 pg
same,MEAN CORPUSCULAR HEMOGLOBIN CONCENTRATION,"72 h, tissue Blood, time 3 day",37.93 G/DL
same,MEAN CORPUSCULAR VOLUME,"72 h, tissue Blood, time 3 day",64.7 fL
same,MONOCYTE,"72 h, tissue Blood, time 3 day",0%
same,NEUTROPHIL,"72 h, tissue Blood, time 3 day",7.33%
same,NUCLEATED RED BLOOD CELLS,"72 h, tissue Blood, time 3 day",0 /100WBC
same,PLATELET COUNT,"72 h, tissue Blood, time 3 day",1290.67 x10E3/uL
same,ALANINE AMINOTRANSFERASE,"72 h, time 3 day",53.67 u/L
same,ALBUMIN,"72 h, time 3 day",3.87 G/DL
same,ALKALINE PHOSPHATASE,"72 h, time 3 day",394 u/L
same,ASPARTATE AMINOTRANSFERASE,"72 h, time 3 day",71 u/L
same,BLOOD UREA NITROGEN,"72 h, time 3 day",17.33 mg/dL
same,CARBON DIOXIDE,"72 h, time 3 day",22.33 mmol/L
same,CHLORIDE,"72 h, time 3 day",107.33 MEQ/L
same,CHOLESTEROL,"72 h, time 3 day",61.67 mg/dL
same,CREATINE PHOSPHOKINASE,"72 h, time 3 day",205.67 u/L
same,CREATININE,"72 h, time 3 day",0.14 mg/dL
same,GLUCOSE,"72 h, time 3 day",163.67 mg/dL
same,LACTATE DEHYDROGENASE,"72 h, time 3 day",229 u/L
same,LIPASE,"72 h, time 3 day",8 u/L
same,PHOSPHORUS,"72 h, time 3 day",13.37 mg/dL
same,POTASSIUM,"72 h, time 3 day",7.13 MEQ/L
same,SODIUM,"72 h, time 3 day",143.6 MEQ/L
same,TOTAL BILIRUBIN,"72 h, time 3 day",0.2 mg/dL
same,TOTAL PROTEIN,"72 h, time 3 day",5.57 G/DL
same,URIC ACID,"72 h, time 3 day",1.77 mg/dL
same,ABSOLUTE BASOPHIL,[1],0 CELLS/uL
same,ABSOLUTE EOSINOPHIL,[1],118 CELLS/uL
same,ABSOLUTE LYMPHOCYTE,[1],10653.33 CELLS/uL
same,ABSOLUTE MONOCYTE,[1],40.33 CELLS/uL
same,ABSOLUTE SEGMENTED NEUTROPHIL,[1],1388.33 CELLS/uL
same,BASOPHIL,[1],0%
same,EOSINOPHIL,[1],1%
same,ERYTHROCYTE COUNT,[1],5.92 x10E6/uL
same,HEMATOCRIT,[1],35.9%
same,HEMOGLOBIN,[1],13.47 G/DL
same,LEUKOCYTE COUNT,[1],12.2 x10E3/uL
same,LYMPHOCYTE,[1],87.33%
same,MEAN CORPUSCULAR HEMOGLOBIN,[1],22.77 pg
same,MEAN CORPUSCULAR HEMOGLOBIN CONCENTRATION,[1],37.5 G/DL
same,MEAN CORPUSCULAR VOLUME,[1],60.63 fL
same,MONOCYTE,[1],0.33%
same,NEUTROPHIL,[1],11.33%
same,NUCLEATED RED BLOOD CELLS,[1],0 /100WBC
same,PLATELET COUNT,[1],1269 x10E3/uL
same,ALANINE AMINOTRANSFERASE,"120 h, time 5 day",41.67 u/L
same,ALBUMIN,"120 h, time 5 day",4 G/DL
same,ALKALINE PHOSPHATASE,"120 h, time 5 day",311.67 u/L
same,ASPARTATE AMINOTRANSFERASE,"120 h, time 5 day",79 u/L
same,BLOOD UREA NITROGEN,"120 h, time 5 day",16 mg/dL
same,CARBON DIOXIDE,"120 h, time 5 day",25 mmol/L
same,CHLORIDE,"120 h, time 5 day",102.33 MEQ/L
same,CHOLESTEROL,"120 h, time 5 day",50.67 mg/dL
same,CREATINE PHOSPHOKINASE,"120 h, time 5 day",364.33 u/L
same,CREATININE,"120 h, time 5 day",0.21 mg/dL
same,GLUCOSE,"120 h, time 5 day",161.33 mg/dL
same,LACTATE DEHYDROGENASE,"120 h, time 5 day",430 u/L
same,LIPASE,"120 h, time 5 day",8 u/L
same,PHOSPHORUS,"120 h, time 5 day",11.67 mg/dL
same,POTASSIUM,"120 h, time 5 day",6.24 MEQ/L
same,SODIUM,"120 h, time 5 day",141.53 MEQ/L
same,TOTAL BILIRUBIN,"120 h, time 5 day",0.2 mg/dL
same,TOTAL PROTEIN,"120 h, time 5 day",5.6 G/DL
same,URIC ACID,"120 h, time 5 day",1.73 mg/dL
